In experiment [1] the test system is A549 (non-small cell lung). Nature of the experiment: Antiproliferative SBR assay (NCI protocol), A549. Format: cell-based, human. To be noted: Homo sapiens, A549; 48 h exposure, n = 3, mean ± SD. From the text: (§1) The latter two represent multidrug-resistant cell lines.
A further experiment has as its system HBL-100 (breast). Nature of the experiment: Antiproliferative SBR assay (NCI protocol), HBL-100. The class given is cell-based, human. The conditions noted are these: Homo sapiens, HBL-100; 48 h exposure, n = 3, mean ± SD.
From the text: as §1

The next experiment concerns HeLa (cervix). Nature of the experiment: Antiproliferative SBR assay (NCI protocol), HeLa. Format: cell-based, human. To be noted: Homo sapiens, HeLa; 48 h exposure, n = 3, mean ± SD.
From the text: as §1

In a further experiment the test system is T-47D (breast). The experiment can be described thus: Antiproliferative SBR assay (NCI protocol), T-47D. Format: cell-based, human. The conditions noted are these: Homo sapiens, T47D; 48 h exposure, n = 3, mean ± SD; multidrug-resistant line.
From the text: as §1

Another experiment deals with WiDr (colon). Nature of the experiment: Antiproliferative SBR assay (NCI protocol), WiDr. The conditions noted are these: Homo sapiens, WiDr; 48 h exposure, n = 3, mean ± SD; multidrug-resistant line. Format: cell-based, human.
From the text: as §1

The test system of experiment [2] is A549, HBL-100, HeLa, SW1573, T-47D, WiDr. Nature of the experiment: Antiproliferative SBR assay, panel of six tumor cell lines (summary statements). Format: cell-based. To be noted: Homo sapiens.
From the text: as §1

The next experiment deals with SW1573 cells. Nature of the experiment: Label-free continuous live cell imaging (holotomographic 3D microscopy). Format: cell-based, human. The conditions noted are these: 20 μM, 20 h. The method, then: Live imaging allows researchers to observe progressive cytostatic effects or cell death of treated cells, enabling the identification of several apoptotic hallmarks. In order to characterize the phenotypic effects of the compounds 4a and 5b on cancer cells, the evolution of the culture was monitored every 3 min using label-free holotomographic 3D microscopy. SW1573 cells were exposed to 4a and 5b at a concentration of 20 μM for 20 h (Supplementary Material, videos S1–S3). Untreated SW1573 cells (control) moved freely and divided throughout the experimental time frame.
The CX-A imaging platform microscope (Nanolive SA, Lausanne, Switzerland) was used to measure refractive indices, creating a holotomographic 3D image of the cells. SW1573 cells were seeded onto 35 mm cell culture imaging dishes (IBIDI GmbH, Gräfelfing, Germany) at a density of 50.000 cells/well. On the next day, treated cells were exposed to the test compounds right before the acquisition of the images. Image data were transferred to FIJI software v2.9.0 (NIH, USA) for image analysis. EVE software v2.2.1.2162 (Nanolive S.A., Tolochenaz, Switzerland)) was used for the analysis of the refractive indices and calculation of the phenotypic parameters.

Experiment [3] has as its system SW1573 (non-small cell lung).
Method: The potential antiproliferative activity of sulfonamides synthesized in this study was evaluated in vitro using the SBR assay, following the US NCI protocol. A panel of six tumor cell lines was employed: A549 (non-small cell lung), HBL-100 (breast), HeLa (cervix), SW1573 (non-small cell lung), T-47D (breast), and WiDr (colon). The latter two represent multidrug-resistant cell lines.
Cells were maintained in culture in 60 mm cell culture dishes in growth medium (10 mL) and passaged twice weekly.
The antiproliferative activity of compounds was tested using our implementation of the protocol of the National Cancer Institute (NCI) of the USA. The following seeding densities (cells per well) were used: 2500 (A549, HBL-100, HeLa, and SW1573) and 5000 (T-47D and WiDr). Stock solutions of inhibitors (40 mM) were prepared in pure DMSO (400 times the maximum test concentration).
Another experiment concerns the target human CA I (Homo sapiens, UniProt P00915). Nature of the experiment: Stopped-flow CO2 hydrase assay, CA I.
Another experiment addresses human CA II (Homo sapiens, UniProt P00918). Nature of the experiment: Stopped-flow CO2 hydrase assay, CA II.
A further experiment deals with human CA IX (Homo sapiens, UniProt Q16790). Nature of the experiment: Stopped-flow CO2 hydrase assay, CA IX. The conditions noted are these: for Selectivity Ratio I/IX: Ki CA I / Ki CA IX; for Selectivity Ratio II/IX: Ki CA II / Ki CA IX.
A further experiment deals with human CA XII (Homo sapiens, UniProt O43570). The experiment can be described thus: Stopped-flow CO2 hydrase assay, CA XII. The conditions noted are these: for Selectivity Ratio I/XII: Ki CA I / Ki CA XII; for Selectivity Ratio II/XII: Ki CA II / Ki CA XII.
human CA XII, sequence (O43570 25-354): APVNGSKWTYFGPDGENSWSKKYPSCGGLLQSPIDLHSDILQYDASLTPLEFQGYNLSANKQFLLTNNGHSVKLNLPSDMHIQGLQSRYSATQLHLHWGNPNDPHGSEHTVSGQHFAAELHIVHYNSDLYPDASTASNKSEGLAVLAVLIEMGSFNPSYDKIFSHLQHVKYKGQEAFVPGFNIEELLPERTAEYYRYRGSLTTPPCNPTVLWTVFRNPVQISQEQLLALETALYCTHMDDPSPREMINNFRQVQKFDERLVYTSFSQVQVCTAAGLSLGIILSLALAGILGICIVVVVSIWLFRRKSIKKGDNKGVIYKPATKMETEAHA
Experiment [4] is described as follows: Metal complexation assay by UV-Vis spectroscopy. The class given is physicochemical. To be noted: DMSO, 25 °C. The method, then:
The ability of 5b, as a model compound, to complex metal cations associated with tumorigenesis (Na^+, K^+, Fe^2+, Fe^3+, Zn^2+, and Cu^2+) was analyzed using UV–Vis spectroscopy. To investigate this, UV–Vis spectra of solutions with varying ratios of 5b to metal chlorides (1:0, 4:1, 2:1, 1:1, 1:2, 1:5) were recorded. Additionally, a 1:2 ligand-to-metal spectrum was obtained after 72 h of incubation to account for potential slow complexation. […] For ZnCl2, only a weak effect was observed after incubation, and no significant changes were detected without incubation, regardless of the ligand-to-Zn^2+ ratio (Figure 6C).
The complexation of 5b with different metal chlorides (NaCl, KCl, FeCl2, FeCl3, ZnCl2, and CuCl2) was investigated using UV–Vis spectroscopy (Jasco V-360). The stock solutions of the salts (10^−2 M) and the ligand (2.5 mM) were prepared in pure DMSO and sonicated when necessary. To 20 µL of a 2.5 mM solution of 5b were added different aliquots of the metal chlorides solutions up to a total volume of 2 mL in quartz cuvettes. The following ligand–metal ratios were used: 1:0.25, 1:0.5, 1:1, 1:2, 1:5, and 1:10. The absorbance was monitored at 25 °C in the range 280–440 nm, either with or without incubation. A blank solution without 5b was also prepared for each concentration of the salt, and its spectrum was subtracted from the ligand–salt spectrum.

[5] abbreviates: range over six tumor cell lines, read-out: GI50 range across all tested cell lines.
Setting [6] is: read-out: GI50 in five out of six cell lines.

Entries after “also recorded” stand apart in the source; their conditions may differ. Like-named read-outs stand apart in the source and are kept apart here.

human CA I, sequence (P00915 whole entry): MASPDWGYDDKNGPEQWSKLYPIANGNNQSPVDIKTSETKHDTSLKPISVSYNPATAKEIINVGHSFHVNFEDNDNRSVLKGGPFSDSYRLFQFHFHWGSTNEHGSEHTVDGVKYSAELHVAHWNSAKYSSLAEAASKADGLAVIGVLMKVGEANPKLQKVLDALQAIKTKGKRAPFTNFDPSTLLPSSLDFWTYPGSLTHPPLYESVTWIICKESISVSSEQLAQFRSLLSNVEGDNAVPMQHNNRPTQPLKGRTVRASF

In the case of `NS(=O)(=O)c1ccc(NC(=S)N/N=C/c2ccccc2)cc1` [Compound 4a, 1-Phenylmethylene-4-(4′-sulfonamidophenyl)-3-thiosemicarbazone], the GI50 in [1] was 5.1 ± 3.7 µM; with HBL-100 (breast), 3 ± 1.6 µM; in the experiment on HeLa (cervix) it was 2.3 ± 0.2 µM; with T-47D (breast), 2.6 ± 0.1 µM; in the experiment on WiDr (colon), 4.5 ± 1.4 µM; in experiment [2] (setting [5]) it was 2.3 to 5.1 µM. Also, growth in [3] was halved (GI50) at 2.9 ± 1.4 µM. For the same compound, in the experiment on SW1573 cells, the “Phenotypic effects on cancer cells” value is “cell division was retarded and apoptotic features were observed in some cells”.

Turning to `COc1ccc(/C=N/NC(=S)NCCc2ccc(S(N)(=O)=O)cc2)cc1` [Compound 4m, 1-(4′-Methoxyphenylmethylene)-4-[2″-(4‴-sulfonamido)phenyl]ethyl-3-thiosemicarbazone], the GI50 in experiment [1] is 97 ± 4 µM; in the experiment with HBL-100 (breast) it was more than 100 µM; in the experiment on HeLa (cervix), more than 100 µM; in the experiment on T-47D (breast), more than 100 µM; with WiDr (colon), more than 100 µM; in experiment [3] it was more than 100 µM. The Ki at human CA I is 3.48 µM; on human CA II, 0.321 µM; on human CA IX it was 0.164 µM; on human CA XII, 0.035 µM. Moreover, the “Selectivity Ratio I/IX” value at human CA IX amounted to 21.2. For the same compound, at human CA IX, the “Selectivity Ratio II/IX” value is given as 2.0. The “Selectivity Ratio I/XII” value at human CA XII is given as 99.4. For the same compound, the “Selectivity Ratio II/XII” value on human CA XII is listed as 9.2.

Consider `NS(=O)(=O)c1ccc(CCNC(=S)N/N=C/c2ccccc2)cc1` [Compound 4l, 1-Phenylmethylene-4-[2′-(4″-sulfonamido)phenyl]ethyl-3-thiosemicarbazone], for which the GI50 in experiment [1] is 90 ± 14 µM; in the experiment with HBL-100 (breast), more than 100 µM; in the experiment on HeLa (cervix), more than 100 µM; in the experiment on T-47D (breast), more than 100 µM; in the experiment on WiDr (colon) it was 90 ± 14 µM; in [3] it was 99 ± 1 µM. Further, the Ki came out at 0.568 µM at human CA I, 0.0702 µM at human CA II, 0.0308 µM on human CA IX and 0.00912 µM at human CA XII. Also, the “Selectivity Ratio I/IX” value at human CA IX stood at 18.4. On human CA IX, the “Selectivity Ratio II/IX” value was 2.3. The “Selectivity Ratio I/XII” value at human CA XII amounted to 62.3. Besides, at human CA XII, the “Selectivity Ratio II/XII” value is 7.7.

Consider `NS(=O)(=O)c1ccc(NC(=S)N/N=C/c2ccccn2)cc1` [Compound 5a, 1-(Pyridin-2′-ylmethylene)-4-(4″-sulfonamidophenyl)-3-thiosemicarbazone], for which the GI50 is 18 ± 2 µM in experiment [1]; 5.2 ± 2.2 µM in the experiment on HBL-100 (breast); 5.2 ± 0.3 µM in the experiment on HeLa (cervix); 5.7 ± 2.1 µM in the experiment with T-47D (breast); 3.8 ± 0.3 µM in the experiment on WiDr (colon); less than 10 µM in experiment [2] (setting [6]). In [3], the GI50 was 4.2 ± 0.1 µM.

With `NS(=O)(=O)c1ccc(CCNC(=S)N/N=C/c2ccc(Cl)cc2)cc1` [Compound 4o, 1-(4′-Chlorophenylmethylene)-4-[2″-(4‴-sulfonamido)pheny]ethyl-3-thiosemicarbazone], the GI50 in experiment [1] was 62 ± 6 µM; in the experiment with HBL-100 (breast) it was 76 ± 32 µM; in the experiment on HeLa (cervix), 45 ± 16 µM; with T-47D (breast), more than 100 µM; with WiDr (colon) it was more than 100 µM; in experiment [3], 73 ± 38 µM. In addition, the Ki at human CA I worked out at 6.22 µM; on human CA II, 0.773 µM; on human CA IX, 0.408 µM; on human CA XII, 0.143 µM. Further, the “Selectivity Ratio I/IX” value on human CA IX turned out to be 15.2. Moreover, on human CA IX, the “Selectivity Ratio II/IX” value was determined as 1.9. The “Selectivity Ratio I/XII” value at human CA XII is 43.4.

Regarding `NS(=O)(=O)c1ccc(CCNC(=S)N/N=C/c2ccc(Br)cc2)cc1` [Compound 4p, 1-(4′-Bromophenylmethylene)-4-[2″-(4‴-sulfonamido)phenyl]ethyl-3-thiosemicarbazone], the GI50 in experiment [1] came to 21 ± 4 µM; in the experiment with HBL-100 (breast), 42 ± 8 µM; in the experiment with HeLa (cervix) it was 31 ± 9 µM; in the experiment on T-47D (breast) it was 37 ± 8 µM; in the experiment on WiDr (colon) it was 58 ± 9 µM; in [3], 53 ± 17 µM. Besides, the Ki on human CA I worked out at 6.09 µM; on human CA II it was 0.813 µM; at human CA IX, 0.499 µM; on human CA XII it was 0.123 µM. On human CA IX, the “Selectivity Ratio I/IX” value was 12.2. The “Selectivity Ratio II/IX” value at human CA IX is reported as 1.6. Besides, the “Selectivity Ratio I/XII” value on human CA XII was 49.5. Besides, the “Selectivity Ratio II/XII” value on human CA XII came out at 6.6.

For the compound `NS(=O)(=O)c1cccc(NC(=S)N/N=C/c2ccccn2)c1` [Compound 5b, 1-(Pyridin-2′-ylmethylene)-4-(3″-sulfonamidophenyl)-3-thiosemicarbazone], the GI50 in experiment [1] is 10 ± 2 µM; in the experiment with HBL-100 (breast), 7.8 ± 2 µM; with HeLa (cervix), 5.8 ± 0.4 µM; in the experiment on T-47D (breast), 5.3 ± 0.7 µM; in the experiment with WiDr (colon), 4.5 ± 0.6 µM; in experiment [2] (setting [5]) it was 4.5 to 10 µM. In addition, the values for the GI50 in [2] (setting [6]) and in experiment [3] were less than 10 µM and 7.1 ± 0.4 µM, respectively. Moreover, the “Chelation of Cu2+” value in experiment [4] (CuCl2 titration) is reported as “efficiently chelated; also recorded: efficient ligand for chelating; also recorded: effective chelation”. Besides, the “Chelation of Fe2+” value in [4] (FeCl2 titration) is on record as “efficiently chelated; also recorded: to a lesser extent; also recorded: effective chelation”. Also, in experiment [4] (FeCl3 titration), the “Chelation of Fe3+” value is “efficiently chelated; also recorded: to a lesser extent”. For the same compound, the “Chelation of K+” value in [4] (KCl titration) was “does not chelate”. Further, in [4] (NaCl titration), the “Chelation of Na+” value was “does not chelate”. Moreover, the “Chelation of Zn2+” value in [4] (ZnCl2 titration) is on record as “notably weaker”. Besides, the “Phenotypic effects on cancer cells” value in the experiment on SW1573 cells was “cell division was retarded and apoptotic features were observed in some cells; also recorded: delayed tumor cell division and features indicative of apoptosis”. For the same compound, the Ki came out at 0.538 µM at human CA I, 0.0025 µM at human CA II, 0.0049 µM at human CA IX and 0.0056 µM on human CA XII. For the same compound, on human CA IX, the “Selectivity Ratio I/IX” value turned out to be 109.8. The “Selectivity Ratio II/IX” value at human CA IX came out at 0.49. Besides, at human CA XII, the “Selectivity Ratio I/XII” value was 96.1.

Values taken from paper PMC11818225, “Multifaceted Sulfonamide-Derived Thiosemicarbazones: Combining Metal Chelation and Carbonic Anhydrases Inhibition in Anticancer Therapy” (International Journal of Molecular Sciences, 2025).
